Assay results reported in US20100190723A1, “PREVENTIVE OR THERAPEUTIC COMPOSITION FOR LIVER DISEASE” (priority 2007, published 2010).
Square brackets hold non-standard residues; d marks the D form. Ends that are not written are not given here. pGlu = O=C1CC[C@@H](C(=O)O)N1

Legend:
[1] = tested on: Hepatic Disorder Rat Model; test: Administration test using hepatic disorder rat model (D-galactosamine), oral peptide (Test Example 2); format: in vivo; conditions: peptide 40 mg/kg orally, Wistar rats; for GOT: blood GOT level 24 hours after D-galactosamine 800 mg/kg i.p., water control 2180; for GPT: blood GPT level 24 hours after D-galactosamine 800 mg/kg i.p., water control 391
Protocol: (§1) Wistar rats (4- to 5-week old) were used for the experiment. Rats were preliminarily fed for a week with purified standard feeds and subjected to fasting for 4 hours. pyroGlu-Leu obtained in Production Example 2 and pyroGlu-Ile obtained in Production Example 3 were each dissolved in water at 10 mg/l ml, and the resulting solutions were administered intraperitoneally in amounts of 20 mg/kg each. D-galactosamine (Sigma) was administered intraperitoneally in an amount of 800 mg/kg 1 hour later. Rats were allowed to freely eat 4 hours after D-galactosamine administration. Each group consisted of 5 rats, and water was administered to the control group instead of the peptide of the present invention.
(§2) Blood was sampled from the rats 24 hours after D-galactosamine administration, and GOT and GPT levels in the blood were assayed to compare the degrees of hepatic disorders.
(§3) GOT and GPT levels were assayed in accordance with the JSCC standardization method (Hiroshi Miura, Japanese Journal of Clinical Medicine (Nippon Rinsho), 53-reprinted-266, 1995).
The test was carried out in the same manner as in Test Example 1. pyroGlu-Gln-Gln, pyroGlu-Gln, pyroGlu-Leu, or pyroGlu-Ile obtained in Production Example 5 was dissolved in water at 10 mg/l ml, and the resulting solution was administered orally to rats in amounts of 40 mg/kg.

[2] = tested on: Hepatic Disorder Rat Model; test: Administration test using hepatic disorder rat model (D-galactosamine), intraperitoneal peptide (Test Example 1); format: in vivo; conditions: peptide 20 mg/kg intraperitoneally 1 hour before, Wistar rats; for GOT: blood GOT level 24 hours after D-galactosamine 800 mg/kg i.p., water control 391; for GPT: blood GPT level 24 hours after D-galactosamine 800 mg/kg i.p., water control 50
Protocol: as §1, §2, §3

Substance	GOT [1] [IU/L]	GPT [1] [IU/L]	GOT [2] [IU/L]	GPT [2] [IU/L]
[pGlu]-Leu	555	131	215	30
[pGlu]-Gln-Gln	524	100		
[pGlu]-Gln	509	124		
[pGlu]-Ile	491	98	314	45
